Laboratory results published in PMC3508077 (Bioorganic & medicinal chemistry, 2012).

Tests used:
[1] = test system: NAD(P)H:quinone reductase 1 (QR1); details: for Inducer class (monofunctional / bifunctional): from QR1 induction in Taoc1BP^rc1 and BP^rc1 mutants; for QR1 induction activity in the mutant cell lines (in words): Taoc1BP^rc1 and BP^rc1 mutant cell lines
[2] = target: T1, human aromatase (CYP19 enzyme) (Homo sapiens, UniProt P11511); details: read-out: Aromatase IC50
T1 sequence (P11511 1-503): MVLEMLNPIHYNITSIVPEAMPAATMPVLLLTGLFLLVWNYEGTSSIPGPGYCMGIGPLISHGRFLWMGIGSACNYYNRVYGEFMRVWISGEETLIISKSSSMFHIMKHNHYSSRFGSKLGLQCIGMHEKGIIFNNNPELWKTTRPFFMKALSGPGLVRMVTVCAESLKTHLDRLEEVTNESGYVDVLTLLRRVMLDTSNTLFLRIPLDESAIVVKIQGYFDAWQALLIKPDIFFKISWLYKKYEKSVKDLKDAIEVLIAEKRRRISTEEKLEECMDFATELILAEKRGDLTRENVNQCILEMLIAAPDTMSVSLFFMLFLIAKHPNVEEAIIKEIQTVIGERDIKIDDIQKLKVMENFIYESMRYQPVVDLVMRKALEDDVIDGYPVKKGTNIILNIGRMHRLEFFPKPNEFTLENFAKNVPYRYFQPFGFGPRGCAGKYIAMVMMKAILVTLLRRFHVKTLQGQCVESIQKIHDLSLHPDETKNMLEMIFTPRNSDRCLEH

[3] = test system: NF-κB; details: cited from earlier work
[4] = test system: NAD(P)H:quinone reductase 1 (QR1); test: cells; details: Mus musculus, 48 h, read-out: CD (concentration that doubles the activity)
[5] = test system: NAD(P)H:quinone reductase 1 (QR1); details: cited from earlier work
[6] = target: T1, human aromatase (CYP19 enzyme); details: cited from earlier work
[7] = test system: NAD(P)H:quinone reductase 1 (QR1); test: QR1 induction assay in Hepa 1c1c7 murine hepatoma cells; type: cell-based; details: Hepa 1c1c7 cells
[8] = test system: NF-κB
[9] = test system: inducible nitric oxide synthase (iNOS)

O=c1cc(-c2ccc(Br)cc2)oc2ccccc12 [4′-Bromoflavone, reference compound]
Inducer class (monofunctional / bifunctional) [1]: bifunctional

c1ccc(-c2nsc(-c3ccccc3)n2)cc1 [Compound 2, 3,5-Diphenyl-1,2,4-thiadiazole]
IC50 [2]: 32.7 ± 3.8 µM
Activity as an inhibitor of NF-κB (in words) [3]: weak
EC (2-fold QR1 activity) [4]: > 50 µM
CD value compared with resveratrol (times lower) [5]: 10 times
Activity as an aromatase inhibitor (in words) [6]: weak

Fc1ccccc1-c1nsc(-c2ccccc2F)n1 [Compound 3, 3,5-bis(2-fluorophenyl)-1,2,4-thiadiazole]
EC (2-fold QR1 activity) [4]: 29.4 ± 1.3 µM
CD (concentration that doubles QR1 activity) [5]: 1.8 µM
IR (QR1 induction ratio) [5]: 10.5

Fc1ccccc1-c1nsc(-c2ccccc2)n1 [Compound 6b, 3-(2-Fluorophenyl)-5-phenyl-1,2,4-thiadiazole]
EC (2-fold QR1 activity) [4]: > 50 µM

FC(F)(F)c1ccccc1-c1nc(-c2ccccc2)cs1 [Compound 9a, 4-Phenyl-2-[2-(trifluoromethyl)phenyl]thiazole]
EC (2-fold QR1 activity) [4]: > 50 µM
QR1 induction activity (in words) [7]: inactive

Clc1cccc(-c2nc(-c3ccccc3)cs2)c1Cl [Compound 9c, 2-(2,3-Dichlorophenyl)-4-phenylthiazole]
QR1 induction activity in the mutant cell lines (in words) [1]: active

Brc1cccc(-c2nc(-c3ccccc3)cs2)c1 [Compound 9d, 2-(3-Bromophenyl)-4-phenylthiazole]
EC (2-fold QR1 activity) [4]: > 50 µM

COc1cccc(-c2nc(-c3ccccc3)cs2)c1 [Compound 9e, 2-(3-Methoxyphenyl)-4-phenylthiazole]
NF-κB inhibitory activity (in words) [8]: low micromolar
Inhibitory activity vs. iNOS (in words) [9]: weak
EC (2-fold QR1 activity) [4]: > 50 µM
QR1 induction activity in the mutant cell lines (in words) [1]: not active

Cc1c(Cl)cccc1-c1nc(-c2ccccc2)cs1 [Compound 9f, 2-(3-Chloro-2-methylphenyl)-4-phenylthiazole]
EC (2-fold QR1 activity) [4]: > 50 µM

Clc1ccc(Cl)c(-c2nc(-c3ccccc3)cs2)c1 [Compound 9g, 2-(2,5-Dichlorophenyl)-4-phenylthiazole]
QR1 induction activity in the mutant cell lines (in words) [1]: active

Cc1ccc(Cl)cc1-c1nc(-c2ccccc2)cs1 [Compound 9h, 2-(5-Chloro-2-methylphenyl)-4-phenylthiazole]
Inducer class (monofunctional / bifunctional) [1]: monofunctional

Clc1cccc(Cl)c1-c1nc(-c2ccccc2)cs1 [Compound 9i, 2-(2,6-Dichlorophenyl)-4-phenylthiazole]
EC (2-fold QR1 activity) [4]: > 50 µM

Cc1cc(Cl)ccc1-c1nc(-c2ccccc2)cs1 [Compound 9j, 2-(4-Chloro-2-methylphenyl)-4-phenylthiazole]
Inducer class (monofunctional / bifunctional) [1]: monofunctional

Cc1ccc(-c2nc(-c3ccccc3)cs2)c(Br)c1 [Compound 9l, 2-(2-Bromo-4-methylphenyl)-4-phenylthiazole]
EC (2-fold QR1 activity) [4]: > 50 µM

CCCCc1ccc(-c2nc(-c3ccccc3)cs2)cc1 [Compound 9m, 2-(4-n-Butylphenyl)-4-phenylthiazole]
EC (2-fold QR1 activity) [4]: > 50 µM

COc1cccc(-c2csc(-c3ccccc3)n2)c1 [Compound 9n, 4-(3-Methoxyphenyl)-2-phenylthiazole]
NF-κB inhibitory activity (in words) [8]: weak
Inhibitory activity vs. iNOS (in words) [9]: weak
QR1 induction activity in the mutant cell lines (in words) [1]: not active

COc1cccc(-c2csc(-c3cccc(OC)c3)n2)c1 [Compound 9o]
NF-κB inhibitory activity (in words) [8]: weak
QR1 induction activity in the mutant cell lines (in words) [1]: not active
CD value compared with that of resveratrol (times better) [7]: 241 times

COc1cccc(-c2csc(-c3cccc(Cl)c3C)n2)c1 [Compound 9p, 2-(3-Chloro-2-methylphenyl)-4-(3-methoxyphenyl)thiazole]
EC (2-fold QR1 activity) [4]: > 50 µM

COc1cccc(-c2csc(-c3cccc(Cl)c3Cl)n2)c1 [Compound 9q, 2-(2,3-Dichlorophenyl)-4-(3-methoxyphenyl)thiazole]
EC (2-fold QR1 activity) [4]: > 50 µM
QR1 induction activity in the mutant cell lines (in words) [1]: did not display activity

COc1cccc(-c2csc(-c3cccc(F)c3F)n2)c1 [Compound 9r, 2-(2,3-Difluorophenyl)-4-(3-methoxyphenyl)thiazole]
EC (2-fold QR1 activity) [4]: > 50 µM

COc1cccc(-c2csc(-c3ccc(C)cc3Br)n2)c1 [Compound 9t, 2-(2-Bromo-4-methylphenyl)-4-(3-methoxyphenyl)thiazole]
EC (2-fold QR1 activity) [4]: > 50 µM

COc1cccc(-c2csc(-c3cc(Cl)ccc3C)n2)c1 [Compound 9u, 2-(5-Chloro-2-methylphenyl)-4-(3-methoxyphenyl)thiazole]
Inducer class (monofunctional / bifunctional) [1]: monofunctional

CCCCc1ccc(-c2nc(-c3cccc(OC)c3)cs2)cc1 [Compound 9v, 2-(4-n-Butylphenyl)-4-(3-methoxyphenyl)thiazole]
EC (2-fold QR1 activity) [4]: > 50 µM

COc1cccc(-c2csc(-c3cccc(Br)c3)n2)c1 [Compound 9w, 2-(3-Bromophenyl)-4-(3-methoxyphenyl)thiazole]
EC (2-fold QR1 activity) [4]: > 50 µM

COc1cccc(-c2csc(-c3cccc(OC)c3F)n2)c1 [Compound 13a, 2-(2-Fluoro-3-methoxyphenyl)-4-(3-methoxyphenyl)thiazole]
EC (2-fold QR1 activity) [4]: > 50 µM
QR1 induction activity (in words) [7]: inactive

COc1cccc(-c2csc(-c3cc(OC)ccc3F)n2)c1 [Compound 13b, 2-(2-Fluoro-5-methoxyphenyl)-4-(3-methoxyphenyl)thiazole]
EC (2-fold QR1 activity) [4]: > 50 µM
QR1 induction activity (in words) [7]: inactive

COc1cccc(-c2noc(-c3cccc(OC)c3)n2)c1 [Compound 15]
EC (2-fold QR1 activity) [4]: > 50 µM

COc1cccc(-c2nsc(-c3cccc(OC)c3)n2)c1 [Compound 16]
EC (2-fold QR1 activity) [4]: > 50 µM
